Measured values from patent US20250108026A1, “DROXIDOPA COMPOSITIONS AND METHODS” (XENAMED CORP., priority 2016, published 2025).
Values after ≈ are worked out from the molar mass of the structure shown.

Assays:
Assay type in all cases: physicochemical
[1] = Droxidopa solubility at room temperature at different pH
[2] = Stability of droxidopa dissolved in diluents of different pH (0.5 mg/ml, room temperature, UPLC); details: for Total degradation, 24-hour Exposure / Total degradation, 48-hour Exposure: room temperature, 0.5 mg/ml
Description: Droxidopa was dissolved in 5 diluents at different pH and stored at room temperature for 24 or 48 hours in sealed glass containers. All solutions were prepared at a nominal concentration of 0.5 mg/ml. Percent degradation was determined by ultra-performance liquid chromatography (UPLC) on a Waters ACQUITY UPLC with a photodiode array (PDA) detector using a Waters ACQUITY BEH C18 1.7 um 2.1×50 mm column. Run conditions for the analyses were as follows: • Mobile phase A: 50 mM sodium phosphate pH 3.0 • Mobile phase B: Acetonitrile • Detection wavelength: 279 nm • Flow: 0.5 ml/min • Column temperature: 30 C • Injection volume: 2 μl • Gradient (linear transitions) are shown in Table 12A: Identification of the known components droxidopa and dihydroxybenzaldehyde was confirmed through retention time and spectral match against pure materials of known identity. Degradation results were quantified as a percent area of degradation peaks versus total area of all degradation/droxidopa peaks. Results for pH 10.0 and pH 12.0 samples were estimated at >90% due to a significant number of peaks present near the retention time of droxidopa.

[3] = Stability of saturated droxidopa solutions at room temperature (UPLC); details: for Stability of saturated droxidopa in solution: room temperature over 24 days; for Total degradation, 7 day Exposure / Total degradation, 24 day Exposure: saturated solution
Description: Saturated solutions of droxidopa were prepared in 3 diluents at different pH and stored at room temperature for up to 24 days in sealed containers. All solutions were prepared with an excess of droxidopa by combining 10 mg droxidopa per ml of diluent. Exposed samples were filtered and degradation as a percent of initial droxidopa amount was determined by ultra-performance liquid chromatography (UPLC) on a Waters ACQUITY UPLC with a photodiode array (PDA) detector using a Waters ACQUITY HSS PFP 1.8 μm 2.1×100 mm column. Run conditions for the analyses were as follows: • Mobile phase A: 50 mM ammonium formate pH 3.0 • Mobile phase B: Acetonitrile • Detection wavelength: 279 nm • Flow: 0.5 ml/min • Column temperature: 30 C • Injection volume: 1 μl • Gradient (linear transitions) are shown in Table 12B: […]

[4] = Solid state stability of droxidopa with pH modifiers under accelerated conditions 70° C./75% RH
Description: Droxidopa is stable in acidic solution, but degrades in neutral or alkaline conditions. […] When citric acid was present with the drug in solid state, e.g. powder or uncoated granules, droxidopa became unstable under accelerated conditions 70° C./75% RH. When these droxidopa granules/pellets were coated with a protective layer, and blended with citric acid, the drug degradation was reduced. Furthermore, a pH modifier monosodium citrate was used instead of citric acid and blended with droxidopa granules. Droxidopa was stable for 7 days under accelerated conditions 70° C./75% RH. […] Thus, salt based pH modifiers can be used to improve the stability of the droxidopa.

[5] = pH 3, 50 mM NaH2PO4 adjusted to pH 3.0 with Phosphoric acid
[6] = pH 7, 50 mM NaH2PO4 adjusted to pH 7.0 with 1N Sodium hydroxide
[7] = 16 mmol citric acid, room temperature
[8] = 16 mmol disodium citrate combined with 16 mmol citric acid to achieve pH 4.0, room temperature

Question: For `N[C@H](C(=O)O)[C@H](O)c1ccc(O)c(O)c1` [droxidopa, (−)-threo-3-(3,4-Dihydroxyphenyl)-L-serine], which solubility ([1]; solution of pH 1.2 (composition not stated), pH 1.2, simulated gastric fluid) is on record?
Answer: Its solubility is 15500 µg/mL (≈ 72.7 mM).

Question: What about the solubility ([1]; solution of pH 3.0 (composition not stated), pH 3, aqueous buffer) of the same compound?
Answer: Its solubility is 2620 µg/mL (≈ 12.3 mM).

Question: And the solubility ([1]; solution of pH 4.5 (composition not stated), pH 4.5, aqueous buffer)?
Answer: The solubility was 2350 µg/mL (≈ 11 mM).

Question: And the solubility ([1]; solution of pH 5.5 (composition not stated), pH 5.5, aqueous buffer)?
Answer: Its solubility is 2300 µg/mL (≈ 10.8 mM).

Question: What about the solubility ([1]; solution of pH 6.8 (composition not stated), pH 6.8, aqueous buffer) of the same compound?
Answer: The solubility was 2470 µg/mL (≈ 11.6 mM).

Question: And the Stability in solution ([2]; acidic solution)?
Answer: Its Stability in solution is “stable”.

Question: And the Stability in solution ([2]; neutral or alkaline conditions)?
Answer: Its Stability in solution is “degrades”.

Question: What about the “Total degradation, 24-hour Exposure” value ([2]; pH 1.2, 0.1N HCl) of the same compound?
Answer: The value was less than 0.05%.

Question: And the “Total degradation, 48-hour Exposure” value ([2]; pH 1.2, 0.1N HCl)?
Answer: The value was less than 0.05%.

Question: What about the “Total degradation, 24-hour Exposure” value [2, 5] of the same compound?
Answer: Its value is less than 0.05%.

Question: And the “Total degradation, 48-hour Exposure” value [2, 5]?
Answer: Its value is less than 0.05%.

Question: What about the “Total degradation, 24-hour Exposure” value [2, 6] of the same compound?
Answer: The value was 0.39%.

Question: What about the “Total degradation, 48-hour Exposure” value [2, 6] of the same compound?
Answer: Its value is 1.23%.

Question: And the “Total degradation, 24-hour Exposure” value ([2]; pH 10, 25 mM HCO2NH4 adjusted to pH 10.0 with NH4OH, estimated)?
Answer: Its value is greater than 90%.

Question: What about the “Total degradation, 24-hour Exposure” value ([2]; pH 12, 0.01N NaOH, estimated) of the same compound?
Answer: The value was greater than 90%.

Question: And the “Stability of saturated droxidopa in solution” value ([3]; citrate buffer (pH 4.0))?
Answer: The value was “stable”.

Question: What about the “Stability of saturated droxidopa in solution” value ([3]; citric acid solution (pH 2.5)) of the same compound?
Answer: Its value is “stable”.

Question: And the “Total degradation, 7 day Exposure” value [3, 7]?
Answer: The value was 0.0%.

Question: And the “Total degradation, 24 day Exposure” value [3, 7]?
Answer: The value was 0.1%.

Question: And the “Total degradation, 7 day Exposure” value [3, 8]?
Answer: Its value is 0.0%.

Question: And the “Total degradation, 24 day Exposure” value [3, 8]?
Answer: Its value is 0.1%.

Question: And the “Total degradation, 7 day Exposure” value ([3]; Deionized water, room temperature)?
Answer: Its value is 0.1%.

Question: And the Solid state stability ([4]; citric acid present with the drug in solid state (powder or uncoated granules))?
Answer: The Solid state stability was “unstable”.

Question: And the Solid state stability ([4]; droxidopa granules blended with monosodium citrate, 7 days)?
Answer: Its Solid state stability is “stable”.

Question: What about the “Drug degradation in solid state” value ([4]; granules/pellets coated with a protective layer and blended with citric acid) of the same compound?
Answer: Its value is “reduced”.
